The results in this text go back to US20070166547A1, “Use of a layer consisting of hydrophobic linear, or two-dimensional polycyclic aromatics as a barrier layer or an encapsulation and electric components constructed with a layer of this type and comprising organic polymers” (priority 2003, published 2007).

Test [1] deals with adenosine-sensitive receptors of erythrocytes. As to the kind of experiment: Chemiluminescence study of bonding to erythrocytes and competition with adenosine. Particulars: 37° C. vs 4° C.; 10^−7 to 10^−5 M. It is filed as binding, mice of line BALB/c. Here is the method:
The interaction of compounds 2, 15, 21, 37 according to the invention with adenosine-sensitive receptors of erythrocytes of female mice of line BALB/c of an age of 8-12 months was investigated.
The dependence of the chemiluminescence intensity of the compounds according to the invention in an alkaline solution of 0.1N NaOH was determined in the presence of hydrogen peroxide being an initiator of chemiluminescence. The chemiluminescence was studied using the <<LKB>> chemiluminometer.
The erythrocytes of peripheral blood of the mice at first were washed three times by a normal physiological solution with centrifuging and then diluted in the Henks solution without glucose by 10 volumes of distilled water immediately used in the experiment.
At the first stage of the experiments the washed erythrocytes were incubated at a temperature of 37° C. or at 4° C. with solutions of the compounds according to the invention at a concentration of 10^−7 to 10^−5 M for 5-30 minutes, then washed by a normal physiological solution with repeated centrifuging in the cold. The obtained suspension of erythrocytes with the bound compounds according to the invention was placed in 0.1N solution of NaOH with addition of hydrogen peroxide at a final concentration of 10^−7 M. The chemiluminescence intensity was measured. A suspension of erythrocytes without compounds according to the invention was used as a control medium.
At the second stage of the experiments the washed erythrocytes were incubated at a temperature of 37° C. with solutions of the compounds according to the invention at a concentration of 10^−11 to 10^−8M during
5-30 minutes, then washed twice with a normal physiological solution by centrifuging in the cold, the obtained suspension was mixed with an adenosine solution at a concentration of 10^−6 to 10^−4 and incubated for 15 minutes, then washed twice with a normal physiological solution with centrifuging in the cold. The obtained suspension of erythrocytes with the compounds according to the invention was placed in 0.1N solution of NaOH with addition of hydrogen peroxide in the final concentration of 10^−7 M. The chemiluminescence intensity was measured.

For test [2], the system named is plasma hemostasis. The experiment in a line: Prothrombin time after intravenous administration. It is filed as in vivo, rabbit. Particulars: for effect on the prothrombin time index (overall): doses of 15.0, 30.0, 60.0 mg/kg. As to the method:
(§1) The investigations were performed on 72 rabbits of the “Chinchilla” breed with a mass of 2.5±0.3 kg, who were administered which solutions of compounds 2, 15, 21, 37 in doses of 15, 30 and 60 mg/kg intravenously. The experiments included the thrombin-test (series No. 7300) and the coagulability-test (series No. 5000) purchased from the scientific-and-production association (SPA) “Renam”, thromboplastin (series No. 240600) and calcium chloride purchased from the SPA “MedioLab”
(§2) The static parameters of the blood and plasma coagulation (partial activated thromboplastin time, thrombin time, maximum coagulation activity (test for auto coagulation) were determined using the Behnk Electronic coagulometer (Germany). The operating principle of this instrument is based on the fact that the formed blood clot breaks the contacts of the pulse counter in the flask-pin circuit, said pin permanently oscillating in a vertical plane. The moment of formation of the clot is registered by stopping the stop watch hand.
(§3) The measurements were effected at a constant temperature of 37° C. maintained by a temperature control unit.
The method of its determination is based on estimation of the coagulation of citrate or oxalic blood plasma, when it is mixed with thromboplastin and a calcium chloride solution. Since under these conditions the time of formation of the clot depends on the content of II, VII, IX and X factors in the investigated plasma sample, now the test is called “thromboplastin time by Quick” or “activity thromboplastin complex”.
Compounds 2, 15, 21, 37 according to the invention at a concentration of 15, 30 and 60 mg/kg were administered to the above experimental animals intravenously and their blood was taken off after 15, 30, 60 and 120 minutes after the administration.
Citrate blood containing 1 part of citrate per 9 parts of native blood was centrifuged at 3000 rev/min for 10 minutes to obtain plasma deprived of thrombocytes.
Added into a test tube in a water bath were 0.1 ml of plasma and 0.1 ml of a thromboplastin solution. After 60 seconds, 0.1 ml of 0.277% solution of calcium chloride was added and the time of reaction T1 in seconds was registered.

Test [3] concerns plasma hemostasis. The experiment in a line: Autocoagulation test (coagulating activity A) after intravenous administration. It is filed as in vivo, rabbit. Particulars: for effect on the coagulation activity, autocoagulation test (overall): doses 15.0, 30.0, 60.0 mg/kg. As to the method: as §1, §2, §3
Compounds 2, 15, 21, 37 according to the invention at a concentration of 15, 30 and 60 mg/kg were intravenously administered to the above experimental animals and their blood samples were taken off 15, 30, 60 and 120 minutes after the administration.
Added to 0.2 ml of plasma obtained by centrifuging citrate blood at 1500 rev/min within 10 minutes was a glycosilate-calcium mixture (2.0 ml 0.222% CaCl2+0.1 ml of investigated citrate blood) 4, 6, 8, 10 minutes after the preparation of this mixture and the time of coagulation in the sample was determined.
The obtained results in seconds were translated in factors of coagulating activity A in percent, which specify the state of both the coagulating and anticoagulating parts of the blood coagulating system.

For a further test, the system named is thymus. The experiment in a line: Morphine abstinence model: thymus condition. It is filed as in vivo, rats. Particulars: morphinized rats then compound. Here is the method:
The effect of the compounds according to the invention on the condition of the thymus of the rats was also investigated: a control group, an experimental group of morphinized animals and an experimental group of animals were first morphinized and then injected with the compounds according to the invention. The experiment was carried out similarly to that described above.

In the case of `O=c1[nH][nH]c(=O)c2c(Br)ncnc12.[K]` [Compound 37, potassium salt of 4-bromine-pyrimido[4,5-D]-6H-pyridazine-5,8-dione], the “bond with the erythrocytes: dependence on incubation temperature” value (“bond with the erythrocytes: dependence” below) in test [1] was “does not depend on the temperature”. Besides, in the test on plasma hemostasis [2] (dose 15.0 mg/kg intravenously), the “T, s After 120 minutes (prothrombin time)” value (from here on “T, s After 120 minutes”) was determined as 11.8 ± 0.1 s; the “T, s after 15 minutes (prothrombin time)” value stood at 11.6 ± 0.2 s; the “T, s after 30 minutes (prothrombin time)” value is given as 11.6 ± 0.1 s; the “T, s after 60 minutes (prothrombin time)” value is listed as 11.5 ± 0.2 s. In the test on plasma hemostasis [2] (dose 30.0 mg/kg intravenously), the “T, s After 120 minutes” value turned out to be 11.1 ± 0.1 s; the “T, s after 15 minutes (prothrombin time)” value was determined as 11.3 ± 0.1 s; the “T, s after 30 minutes (prothrombin time)” value is listed as 11.2 ± 0.2 s; the “T, s after 60 minutes (prothrombin time)” value came to 11.4 ± 0.1 s. Also, in the test with plasma hemostasis [2] (dose 60.0 mg/kg intravenously), the “T, s After 120 minutes” value amounted to 12.0 ± 0.1 s; the “T, s after 15 minutes (prothrombin time)” value amounted to 12.1 ± 0.1 s; the “T, s after 30 minutes (prothrombin time)” value was 12.0 ± 0.1 s; the “T, s after 60 minutes (prothrombin time)” value came out at 12.1 ± 0.2 s. The “effect on the prothrombin time index (overall)” value in the test with plasma hemostasis [2] was “have no effect on the prothrombin time index”. In addition, in the test on plasma hemostasis [3] (dose 15.0 mg/kg intravenously), the “A, % after 15 minutes (coagulating activity)” value (“A, % after 15 minutes” for short) was determined as 82.1%; the “A, % after 30 minutes (coagulating activity)” value (“A, % after 30 minutes” below) worked out at 102.8%; the “A, % after 60 minutes (coagulating activity)” value (shortened to “A, % after 60 minutes”) is 88.7%; the “A, % after 120 minutes (coagulating activity)” value (“A, % after 120 minutes” for short) was determined as 100.6%. Moreover, in the test with plasma hemostasis [3] (dose 30.0 mg/kg intravenously), the “A, % after 15 minutes” value stood at 99.8%; the “A, % after 30 minutes” value is 68.3%; the “A, % after 60 minutes” value turned out to be 105.8%; the “A, % after 120 minutes” value was found to be 70.4%. In the test on plasma hemostasis [3] (dose 60.0 mg/kg intravenously), the “A, % after 15 minutes” value is 74.3%; the “A, % after 30 minutes” value is reported as 63.0%; the “A, % after 60 minutes” value was 64.2%; the “A, % after 120 minutes” value is listed as 66.3%. Besides, the “effect on the coagulation activity, autocoagulation test (overall)” value (“effect on the coagulation activity” for short) in the test with plasma hemostasis [3] is listed as “have no effect on the coagulation activity”. In the test with thymus, the “Nitrites, thymus Supernatant, Administration of morphine and compound” value is listed as 0.387 ± 0.01 nmol/mg of protein; the “Thymus mass, Administration of morphine and compound” value is reported as 228 ± 15 mg.

Consider `O=c1[nH][nH]c(=O)c2nccnc12.[Li]` [Compound 25, lithium salt of pyrazine[2,3-d]-6H-pyridazine-5,8-dione], for which, in the test on thymus, the “Nitrites, thymus Supernatant, Administration of morphine and compound” value is given as 0.396 ± 0.02 nmol/mg of protein; the “Thymus mass, Administration of morphine and compound” value is listed as 218 ± 17 mg.

On to `Nc1ccnc2c(=O)n([C@@H]3O[C@H](CO)[C@@H](O)[C@H]3O)[nH]c(=O)c12` [Compound 2, 4-amino-7-(β-D-ribofuranosile)pyrido[2,3-d]-6H-pyridazine-5,8-dione], for which the “bond with the erythrocytes: dependence” value in test [1] is listed as “does not depend on the temperature”. In addition, in the test on plasma hemostasis [2] (dose 15.0 mg/kg intravenously), the “T, s After 120 minutes” value was 11.7 ± 0.1 s; the “T, s after 15 minutes (prothrombin time)” value is on record as 11.7 ± 0.2 s; the “T, s after 30 minutes (prothrombin time)” value is listed as 11.5 ± 0.2 s; the “T, s after 60 minutes (prothrombin time)” value is 11.4 ± 0.2 s. Further, in the test with plasma hemostasis [2] (dose 30.0 mg/kg intravenously), the “T, s After 120 minutes” value amounted to 11.2 ± 0.2 s; the “T, s after 15 minutes (prothrombin time)” value stood at 11.1 ± 0.2 s; the “T, s after 30 minutes (prothrombin time)” value is listed as 11.0 ± 0.1 s; the “T, s after 60 minutes (prothrombin time)” value came out at 11.3 ± 0.1 s. Also, in the test with plasma hemostasis [2] (dose 60.0 mg/kg intravenously), the “T, s After 120 minutes” value came to 11.9 ± 0.1 s; the “T, s after 15 minutes (prothrombin time)” value was 12.0 ± 0.1 s; the “T, s after 30 minutes (prothrombin time)” value came out at 11.9 ± 0.2 s; the “T, s after 60 minutes (prothrombin time)” value is 12.1 ± 0.2 s. Also, the “effect on the prothrombin time index (overall)” value in the test with plasma hemostasis [2] is recorded as “have no effect on the prothrombin time index”. In addition, in the test on plasma hemostasis [3] (dose 15.0 mg/kg intravenously), the “A, % after 15 minutes” value is reported as 80.2%; the “A, % after 30 minutes” value is 100.0%; the “A, % after 60 minutes” value is 87.4%; the “A, % after 120 minutes” value is recorded as 98.0%. Also, in the test on plasma hemostasis [3] (dose 30.0 mg/kg intravenously), the “A, % after 15 minutes” value is 98.4%; the “A, % after 30 minutes” value came to 71.2%; the “A, % after 60 minutes” value was found to be 104.2%; the “A, % after 120 minutes” value was 70.9%. Moreover, in the test on plasma hemostasis [3] (dose 60.0 mg/kg intravenously), the “A, % after 15 minutes” value turned out to be 72.3%; the “A, % after 30 minutes” value is listed as 60.8%; the “A, % after 60 minutes” value was 62.5%; the “A, % after 120 minutes” value is 65.7%. Also, the “effect on the coagulation activity” value in the test with plasma hemostasis [3] was “have no effect on the coagulation activity”.

Turning to `Nc1cnc2c(=O)n([C@@H]3O[C@H](CO)[C@@H](O)[C@H]3O)[nH]c(=O)c2n1.[Na]` [Compound 21, sodium salt of 3-amino-7-(β-D-ribofuranosile)pyrazine[2,3-d]-6H-pyridazine-5,8-dione], in test [1], the “bond with the erythrocytes: dependence” value was “does not depend on the temperature”. For the same compound, in the test with plasma hemostasis [2] (dose 15.0 mg/kg intravenously), the “T, s After 120 minutes” value was 11.5 ± 0.2 s; the “T, s after 15 minutes (prothrombin time)” value is 11.4 ± 0.2 s; the “T, s after 30 minutes (prothrombin time)” value is listed as 11.5 ± 0.1 s; the “T, s after 60 minutes (prothrombin time)” value was determined as 11.3 ± 0.1 s. For the same compound, in the test with plasma hemostasis [2] (dose 30.0 mg/kg intravenously), the “T, s After 120 minutes” value worked out at 11.2 ± 0.2 s; the “T, s after 15 minutes (prothrombin time)” value was determined as 11.2 ± 0.1 s; the “T, s after 30 minutes (prothrombin time)” value worked out at 11.2 ± 0.1 s; the “T, s after 60 minutes (prothrombin time)” value is given as 11.3 ± 0.2 s. Also, in the test with plasma hemostasis [2] (dose 60.0 mg/kg intravenously), the “T, s After 120 minutes” value is 12.0 ± 0.2 s; the “T, s after 15 minutes (prothrombin time)” value was found to be 12.0 ± 0.2 s; the “T, s after 30 minutes (prothrombin time)” value came to 11.8 ± 0.1 s; the “T, s after 60 minutes (prothrombin time)” value amounted to 12.1 ± 0.1 s. Further, in the test on plasma hemostasis [2], the “effect on the prothrombin time index (overall)” value is given as “have no effect on the prothrombin time index”. In addition, in the test with plasma hemostasis [3] (dose 15.0 mg/kg intravenously), the “A, % after 15 minutes” value is listed as 81.4%; the “A, % after 30 minutes” value is recorded as 101.3%; the “A, % after 60 minutes” value worked out at 86.5%; the “A, % after 120 minutes” value came to 97.4%. In the test with plasma hemostasis [3] (dose 30.0 mg/kg intravenously), the “A, % after 15 minutes” value is 97.2%; the “A, % after 30 minutes” value worked out at 69.1%; the “A, % after 60 minutes” value came to 103.7%; the “A, % after 120 minutes” value was 71.0%. In the test on plasma hemostasis [3] (dose 60.0 mg/kg intravenously), the “A, % after 15 minutes” value came to 71.9%; the “A, % after 30 minutes” value stood at 62.1%; the “A, % after 60 minutes” value turned out to be 63.7%; the “A, % after 120 minutes” value turned out to be 66.2%. Moreover, the “effect on the coagulation activity” value in the test with plasma hemostasis [3] is listed as “have no effect on the coagulation activity”.
